These results are taken from patent publication US20240190879A1, “FUSED BICYCLIC COMPOUNDS USEFUL FOR MODULATING NUCLEIC ACID SPLICING” (REMIX THERAPEUTICS INC., priority 2020, published 2024).

Common to all, as to format: cell-based
The test system of assay [1] is HTT mRNA alternative junction (AJ). The assay can be described thus: RT-qPCR splicing assay, HTT alternative junction (AJ) mRNA increase. The settings on record: A673 or K562 cell line, 24 hours treatment; concentration having 50% response in AJ mRNA increase. The method, then: (§1) Compounds described herein were used to modulate RNA transcript abundance in cells. The expression of a target mRNA was measured by detecting the formation of an exon-exon junction in the canonical transcript (CJ). A compound mediated exon-inclusion event was detected by observing an increase in formation of a new junction with an alternative exon (AJ). Real-time qPCR assays were used to detect these splicing switches and interrogate the potency of various compounds towards different target genes. A high-throughput real time quantitative PCR (RT-qPCR) assay was developed to measure these two isoforms of the mRNA (CJ and AJ) for an exemplary gene, HTT, together with a control housekeeping gene, GAPDH or GUSB or PPIA, used for normalization. Briefly, the A673 or K562 cell line was treated with various compounds described herein (e.g., compounds of Formula (I)). After treatment, the levels of the HTT mRNA targets were determined from each sample of cell lysate by cDNA synthesis followed by qPCR.
(§2) The A673 cell line was cultured in DMEM with 10% FBS. Cells were diluted with full growth media and plated in a 96-well plate (15,000 cells in 100 ul media per well). The plate was incubated at 37° C. with 5% CO2 for 24 hours to allow cells to adhere. An 11-point 3-fold serial dilution of the compounds was made in DMSO then diluted in media in an intermediate plate. Compounds were transferred from the intermediate plate to the cell plate with the top dose at a final concentration of 10 uM in the well. Final DMSO concentration was kept at or below 0.25%. The cell plate was returned to the incubator at 37° C. with 5% CO2 for an additional 24 hours.
(§3) The K562 cell line was cultured in IMDM with 10% FBS. For K562, cells were diluted with full growth media and plated in either a 96-well plate (50,000 cells in 50 uL media per well) or a 384-well plate (8,000-40,000 cells in 45 uL media per well). An 11-point 3-fold serial dilution of the compounds were made in DMSO then diluted in media in an intermediate plate. Compound was transferred from the intermediate plate to the cell plate with the top dose at a final concentration of 10 uM in the well. Final DMSO concentration was kept at or below 0.25%. Final volume was 100 uL for 96-well plate and 50 uL for 384-well plate. The cell plate was then placed in an incubator at 37° C. with 5% CO2 for 24 hours.
(§4) The cells were then gently washed with 50 uL-100 uL cold PBS before proceeding to addition of lysis buffer. 30 uL-50 uL of room temperature lysis buffer with DNAse I (and optionally RNAsin) was added to each well. Cells were shaken/mixed thoroughly at room temperature for 5-10 minutes for lysis to take place and then 3 uL-5 uL of room temperature stop solution was added and wells were shaken/mixed again. After 2-5 minutes, the cell lysate plate was transferred to ice for RT-qPCR reaction setup. The lysates could also be frozen at −80° C. for later use.
(§5) In some cases, a direct lysis buffer was used. An appropriate volume of 3×lysis buffer (10 mM Tris, 150 mM NaCl, 1.5%-2.5% Igepal and 0.1-1 U/uL RNAsin, pH 7.4) was directly added to either K562 or A673 cells in media and mixed by pipetting 3 times. The plates were then incubated at room temperature with shaking/rocking for 20-50 minutes to allow for lysis to take place. After this time, the cell lysate plate was transferred to ice to set up for the RT-qPCR reactions. The lysates could also be frozen at −80° C. for later use.
(§6) To set up 10 uL RT-qPCR reactions, cell lysates were transferred to 384-well qPCR plates containing the master mix according to the table below. The plates were sealed, gently vortexed, and spun down before the run. The volumes were adjusted accordingly in some instances where the reaction was carried in 20 uL. The table below summarizes the components of the RT-qPCR reactions:
(§7) The RT-qPCR reaction was performed using a QuantStudio (ThermoFisher) under the following fast cycling conditions. […]

For assay [2], the system named is HTT mRNA canonical junction (CJ). The assay can be described thus: RT-qPCR splicing assay, HTT canonical junction (CJ) mRNA decrease. As to conditions: A673 or K562 cell line, 24 hours treatment; concentration having 50% response in CJ mRNA decrease. As to the method:
as §1, §2, §3, §4, §5, §6, §7
On the technique in general: Real-time PCR tracks product formation cycle by cycle.

The next assay deals with Target C CJ mRNA. In words: Gene panel canonical junction qPCR assay, Target C. The settings on record: larger gene panel; concentration having 50% response in CJ decrease; read-out: Target C IC50 (decrease in CJ mRNA levels). The method, then: as §1
(§8) The data analysis was performed by first determining the ΔCt vs the housekeeper gene. This ΔCt was then normalized against the DMSO control (ΔΔCt) and converted to RQ (relative quantification) using the 2^(−ΔΔCt) equation. The RQ were then converted to a percentage response by arbitrarily setting an assay window of 3.5 ΔCt for HTT-CJ and an assay window of 9 ΔCt for HTT-AJ. […] The percentage response was then fitted to the 4 parametric logistic equation to evaluate the concentration dependence of compound treatment. The increase in AJ mRNA is reported as AC50 (compound concentration having 50% response in AJ increase) while the decrease in CJ mRNA levels is reported as IC50 (compound concentration having 50% response in CJ decrease).
(§9) Additional studies were carried out for a larger panel of genes using the protocol provided above. The junction between flanking upstream and downstream exons was used to design canonical junction qPCR assays. At least one of the forward primer, reverse primer or the CY5-labeled 5′ nuclease probe (with 3′ quencher such as ZEN/Iowa Black FQ) was designed to overlap with the exon junction to capture the CJ mRNA transcript. BLAST was used to confirm the specificity of the probeset and parameters such as melting temperature, GC content, amplicon size, and primer dimer formation are considered during their design. Data for the decrease in CJ mRNA levels for three exemplary genes (HTT, SMN2, and Target C) analyzed in this panel are reported as IC50 (compound concentration having 50% response in CJ decrease).

Another assay deals with HTT CJ mRNA. In words: Gene panel canonical junction qPCR assay, HTT. The settings on record: larger gene panel; concentration having 50% response in CJ decrease; read-out: HTT IC50 (decrease in CJ mRNA levels). The method, then:
as §1, §8, §9

The subject of another assay is SMN2 CJ mRNA. In words: Gene panel canonical junction qPCR assay, SMN2. The settings on record: larger gene panel; concentration having 50% response in CJ decrease; read-out: SMN2 IC50 (decrease in CJ mRNA levels). As to the method:
as §1, §8, §9

A value given as a limit tells only on which side of the number the result lay.

As a reminder, the AC50 is the concentration at which the activity in the assay is half-maximal. Lower therefore signals greater potency. By IC50 is commonly meant the concentration that gives 50% inhibition. As for `Cc1cn2cc(-c3cccc4c(N5CCCCC5)nncc34)nc2c(C)n1` [Compound 108, 5-[6,8-dimethylimidazo[1,2-a]pyrazin-2-yl]-1-(piperidin-1-yl)phthalazine], the AC50 in assay [1] and in assay [2] was more than 10 µM throughout. For the same compound, in the assay with Target C CJ mRNA, the concentration for half-maximal inhibition (IC50) fell in the range of 1 to 10 µM.

Regarding `Cc1cn2nc(NC(=O)c3cccc4c(N5CCNCC5)cnnc34)cc(C)c2n1` [Compound 111, N-[2,8-dimethylimidazo[1,2-b]pyridazin-6-yl]-4-(piperazin-1-yl)cinnoline-8-carboxamide], the AC50 in assay [1] and in assay [2] was more than 10 µM throughout.

For `Cc1cn2cc(-c3cccc4c(C5=CCNCC5)nncc34)nc2c(C)n1` [Compound 109, 5-[6,8-dimethylimidazo[1,2-a]pyrazin-2-yl]-1-(1,2,3,6-tetrahydropyridin-4-yl)phthalazine], the AC50 in assay [1] and in assay [2] was more than 10 µM throughout. The half-inhibitory concentration (IC50) with Target C CJ mRNA was in the range of 1 to 10 µM.

Turning to `Cc1cn2nc(-c3cccc4c(N5CCNCC5)nncc34)cc(C)c2n1` [Compound 101, 5-[2,8-dimethylimidazo[1,2-b]pyridazin-6-yl]-1-(piperazin-1-yl)phthalazine], the AC50 was 1 to 10 µM in assay [1] and more than 10 µM in assay [2]. Moreover, the IC50 with Target C CJ mRNA lay within 1 to 10 µM.

Take `Cc1cn2cc(NC(=O)c3cccc4c(N(C)C5CC(C)(C)NC(C)(C)C5)cnnc34)cc(F)c2n1` [Compound 184, N-[8-fluoro-2-methylimidazo[1,2-a]pyridin-6-yl]-4-[methyl(2,2,6,6-tetramethylpiperidin-4-yl)amino]cinnoline-8-carboxamide]: the half-maximal activity concentration (AC50) in assay [1] and in assay [2] was 1 to 10 µM each time. In addition, the IC50 with HTT CJ mRNA, with SMN2 CJ mRNA and in the assay with Target C CJ mRNA was 1 to 10 µM each time.

As for `Cc1cn2cc(NC(=O)c3cccc4c(N(C)C5CCN(C)CC5)cnnc34)cc(F)c2n1` [Compound 213], the concentration at half-maximal activity (AC50) in assay [1] and in assay [2] was 1 to 10 µM throughout. Also, the half-inhibitory concentration (IC50) with HTT CJ mRNA, in the assay with SMN2 CJ mRNA and in the assay with Target C CJ mRNA was 1 to 10 µM in each case.

In the case of `Cc1cn2cc(NC(=O)c3cccc4c(N5CCC(NC(C)(C)C)C5)cnnc34)cc(F)c2n1` (stereo not shown) [Compound 122, 4-[3-(tert-butylamino)pyrrolidin-1-yl]-N-[8-fluoro-2-methylimidazo[1,2-a]pyridin-6-yl]cinnoline-8-carboxamide], the concentration at half-maximal activity (AC50) in assay [1] and in assay [2] was more than 10 µM each time.

Regarding `Cc1cn2nc(NC(=O)c3cccc4c(C5CCNCC5)cnnc34)cc(C)c2n1` [Compound 112, N-[2,8-dimethylimidazo[1,2-b]pyridazin-6-yl]-4-(piperidin-4-yl)cinnoline-8-carboxamide], the AC50 in assay [1] and in assay [2] was more than 10 µM each time. Moreover, the concentration for half-maximal inhibition (IC50) in the assay on Target C CJ mRNA lay in the range of 1 to 10 µM.

As for `COc1cc(N2CCNCC2)c2cccc(-c3cc(F)c4nc(C)cn4c3)c2n1` [Compound 138, 8-[8-fluoro-2-methylimidazo[1,2-a]pyridin-6-yl]-2-methoxy-4-(piperazin-1-yl) quinoline], the concentration at half-maximal activity (AC50) in assay [1] and in assay [2] was more than 10 µM in each case. Also, the IC50 in the assay with HTT CJ mRNA was more than 10 µM; in the assay on SMN2 CJ mRNA, 0.1 to 1 µM; in the assay on Target C CJ mRNA it was more than 10 µM.

As to `Cc1cn2cc(NC(=O)c3cccc4c(N5CCNCC5)cnnc34)cc(F)c2n1` [Compound 113, N-[8-fluoro-2-methylimidazo[1,2-a]pyridin-6-yl]-4-(piperazin-1-yl)cinnoline-8-carboxamide], the AC50 in assay [1] is 1 to 10 µM; in assay [2], more than 10 µM. Moreover, the IC50 in the assay on HTT CJ mRNA is more than 10 µM; in the assay on SMN2 CJ mRNA it was less than 0.1 µM; with Target C CJ mRNA it was less than 0.1 µM.

In turn, `Cc1cn2nc(-c3cccc4c(C5CCNCC5)nncc34)cc(C)c2n1` [Compound 104, 5-[2,8-dimethylimidazo[1,2-b]pyridazin-6-yl]-1-(piperidin-4-yl)phthalazine] came in with a half-maximal activity concentration (AC50) in assay [1] of more than 10 µM.

As to `Cc1cn2cc(-c3cccc4c(N5CCNCC5)nncc34)nc2c(C)n1` [Compound 100, 5-[6,8-dimethylimidazo[1,2-a]pyrazin-2-yl]-1-(piperazin-1-yl)phthalazine], the AC50 in assay [1] and in assay [2] was more than 10 µM each time.

For `Cc1cn2nc(-c3cccc4c3CCC(=O)N4C3CCNCC3)cc(C)c2n1` [Compound 185], the AC50 in assay [1] was more than 10 µM; in assay [2], 1 to 10 µM. Moreover, the half-maximal inhibitory concentration (IC50) was 1 to 10 µM with HTT CJ mRNA and more than 10 µM in the assay on SMN2 CJ mRNA.

As to `Cc1cn2cc(NC(=O)c3cccc4c(C5CCNCC5)cnnc34)cc(F)c2n1` [Compound 114, N-[8-fluoro-2-methylimidazo[1,2-a]pyridin-6-yl]-4-(piperidin-4-yl)cinnoline-8-carboxamide], the AC50 in assay [1] and in assay [2] was more than 10 µM in each case.

As to `COc1cc(N2CCNCC2)c2cccc(-c3cc(C)c4nc(C)cn4n3)c2n1` [Compound 134, 8-[2,8-dimethylimidazo[1,2-b]pyridazin-6-yl]-2-methoxy-4-(piperazin-1-yl) quinoline], the AC50 in assay [1] and in assay [2] was 1 to 10 µM each time. In addition, the IC50 in the assay with Target C CJ mRNA lay in the range of 1 to 10 µM.

In the case of `c1cc(-c2cn[nH]c2)c2cnnc(N3CCNCC3)c2c1` [Compound 102, 1-(piperazin-1-yl)-5-(1H-pyrazol-4-yl)phthalazine], the concentration at half-maximal activity (AC50) in assay [1] and in assay [2] was more than 10 µM each time. The IC50 in the assay on HTT CJ mRNA and in the assay with SMN2 CJ mRNA was more than 10 µM each time.
